Among the test systems are MOLT-4 leukemia; MCF7 breast; SNB-19 CNS; OVCAR-3 ovarian; A549 NSCLC; BT-549 breast; SF-268 CNS; A498 renal; SW-620 colon; MDA-N; NCI/ADR-RES ovarian; SK-MEL-2 melanoma; 786-0 renal; SK-MEL-5 melanoma; SNB-75 CNS; NCI-H460 lung; NCI-H522 lung; UO-31 renal; HT29 colon; UACC-62 melanoma.
Common to all, as to assay: NCI anticancer screen, dose series, 48 h

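Briefly, cells in 96-well plates were exposed to five compound concentrations for 48 h, and endpoints were estimated by linear interpolation. TGI: total growth inhibition.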

Regarding `C=CCNC(=S)N=Nc1c(O)n(CN2CCOCC2)c2ccc([N+](=O)[O-])cc12`, the TGI with MOLT-4 leukemia, in the experiment on MCF7 breast, with SNB-19 CNS, in the experiment with OVCAR-3 ovarian, with A549 NSCLC and in the experiment on BT-549 breast was more than 100 µM throughout. The TGI is more than 100 µM in the experiment on SF-268 CNS; 65.6 µM with A498 renal; more than 100 µM with SW-620 colon; more than 100 µM in the experiment with MDA-N; more than 100 µM with NCI/ADR-RES ovarian; more than 100 µM with SK-MEL-2 melanoma. In addition, the TGI in the experiment on 786-0 renal was more than 100 µM; in the experiment on SK-MEL-5 melanoma, 84.6 µM; in the experiment on SNB-75 CNS it was 88.3 µM; in the experiment with NCI-H460 lung it was more than 100 µM; in the experiment on NCI-H522 lung it was more than 100 µM; in the experiment on UO-31 renal, more than 100 µM. The TGI in the experiment with HT29 colon and in the experiment on UACC-62 melanoma was more than 100 µM throughout.
Turning to `CCCCCCCCCCCCCCCCCCNc1ccn(C2OC(COP(=O)(O)OCC3OC(n4cc(C)c(=O)[nH]c4=O)CC3F)C(O)C2O)c(=O)n1` (stereo not given), the TGI in the experiment on MOLT-4 leukemia is 15.4 µM; in the experiment on MCF7 breast it was more than 64.5 µM; in the experiment on SNB-19 CNS, 14.1 µM; in the experiment with OVCAR-3 ovarian, 50.5 µM; in the experiment on A549 NSCLC it was 46.7 µM; in the experiment with BT-549 breast, 11 µM. In addition, the TGI is 19.5 µM with SF-268 CNS; more than 60.2 µM in the experiment with A498 renal; 12.3 µM with SW-620 colon; 38.9 µM with MDA-N; 45.9 µM with NCI/ADR-RES ovarian; 19.4 µM with SK-MEL-2 melanoma. Moreover, the TGI in the experiment with 786-0 renal came out at 9.52 µM; with SK-MEL-5 melanoma it was 44.9 µM; with SNB-75 CNS, 37.6 µM; in the experiment on NCI-H460 lung, 43.9 µM; with NCI-H522 lung, 9.04 µM; in the experiment on UO-31 renal, 43.6 µM. Moreover, the TGI was more than 55 µM in the experiment on HT29 colon and 12.6 µM in the experiment on UACC-62 melanoma.
With `COc1ccc(OC)c(CSc2ccc(OC)c(OC)c2)c1`, the TGI in the experiment on MOLT-4 leukemia, in the experiment with MCF7 breast, with SNB-19 CNS, in the experiment on OVCAR-3 ovarian, in the experiment with A549 NSCLC and in the experiment on BT-549 breast was more than 100 µM throughout. For the same molecule, the TGI in the experiment on SF-268 CNS was more than 100 µM; in the experiment on A498 renal it was 99.3 µM; in the experiment on SW-620 colon, more than 100 µM; in the experiment on MDA-N, more than 100 µM; in the experiment on NCI/ADR-RES ovarian it was more than 100 µM; in the experiment on SK-MEL-2 melanoma, more than 100 µM. For the same molecule, the TGI with 786-0 renal, in the experiment on SK-MEL-5 melanoma, in the experiment with SNB-75 CNS, with NCI-H460 lung, in the experiment with NCI-H522 lung and in the experiment on UO-31 renal was more than 100 µM throughout. For the same molecule, the TGI in the experiment on HT29 colon and in the experiment with UACC-62 melanoma was more than 100 µM each time.
`Cc1ccc(S(=O)(=O)CN2C(=O)C(c3ccccc3)(c3ccccc3)C23OC(c2ccc(Cl)cc2)=CC3=O)cc1` (stereo not given): the TGI in the experiment with MOLT-4 leukemia, with MCF7 breast, in the experiment with SNB-19 CNS, in the experiment with OVCAR-3 ovarian, in the experiment on A549 NSCLC and in the experiment with BT-549 breast was more than 10 µM in each case. For the same molecule, the TGI in the experiment with SF-268 CNS, with A498 renal, with SW-620 colon, in the experiment on MDA-N, with NCI/ADR-RES ovarian and with SK-MEL-2 melanoma was more than 10 µM in each case. Further, the TGI in the experiment on 786-0 renal, in the experiment with SK-MEL-5 melanoma, with SNB-75 CNS, with NCI-H460 lung, with NCI-H522 lung and in the experiment with UO-31 renal was more than 10 µM each time. The TGI in the experiment with HT29 colon and in the experiment on UACC-62 melanoma was more than 10 µM in each case.
Consider `CCc1c(CN)c(CC)c(CNC2=NCCN2)c(CC)c1CNC1=NCCN1`, for which the TGI in the experiment with MOLT-4 leukemia, with MCF7 breast, with SNB-19 CNS, in the experiment with OVCAR-3 ovarian, in the experiment on A549 NSCLC and in the experiment with BT-549 breast was more than 100 µM in each case. For the same molecule, the TGI with SF-268 CNS, with A498 renal, with SW-620 colon, with MDA-N, in the experiment on NCI/ADR-RES ovarian and with SK-MEL-2 melanoma was more than 100 µM throughout. Moreover, the TGI with 786-0 renal, in the experiment on SK-MEL-5 melanoma, in the experiment on SNB-75 CNS, in the experiment with NCI-H460 lung, in the experiment with NCI-H522 lung and in the experiment with UO-31 renal was more than 100 µM in each case. Moreover, the TGI in the experiment on HT29 colon and with UACC-62 melanoma was more than 100 µM in each case.
On to `C=CCc1[nH]c2c(OCc3ccccc3)cc(N(CC=C)C(C)=O)cc2c1C`, for which the TGI came out at 30.7 µM with MOLT-4 leukemia; 24.9 µM in the experiment with MCF7 breast; 25.3 µM in the experiment with SNB-19 CNS; 29.6 µM in the experiment with OVCAR-3 ovarian; 26.2 µM with A549 NSCLC; 29.3 µM in the experiment with BT-549 breast. In addition, the TGI in the experiment with SF-268 CNS turned out to be 24.6 µM; with A498 renal, 25 µM; with SW-620 colon it was 32.2 µM; in the experiment on MDA-N it was 27.9 µM; in the experiment with NCI/ADR-RES ovarian, 31 µM; in the experiment on SK-MEL-2 melanoma, 26.1 µM. Besides, the TGI in the experiment with 786-0 renal came to 28 µM; in the experiment on SK-MEL-5 melanoma, 24 µM; with SNB-75 CNS, 23.4 µM; in the experiment on NCI-H460 lung it was 27.9 µM; in the experiment with NCI-H522 lung it was 26.5 µM; in the experiment on UO-31 renal, 21.3 µM. Besides, the TGI is 20.5 µM in the experiment with HT29 colon and 26.9 µM in the experiment on UACC-62 melanoma.
With `CCOC(=O)CCC(NC(=O)Cc1ccc(Nc2nc3ccccc3nc2-c2cccs2)cc1)C(=O)OCC` (stereo not given), the TGI in the experiment on MOLT-4 leukemia, in the experiment with MCF7 breast, in the experiment on SNB-19 CNS, in the experiment on OVCAR-3 ovarian, in the experiment on A549 NSCLC and in the experiment on BT-549 breast was more than 100 µM in each case. The TGI in the experiment on SF-268 CNS, in the experiment with A498 renal, in the experiment on SW-620 colon, in the experiment with MDA-N, in the experiment with NCI/ADR-RES ovarian and with SK-MEL-2 melanoma was more than 100 µM throughout. Moreover, the TGI with 786-0 renal, with SK-MEL-5 melanoma, in the experiment on SNB-75 CNS, in the experiment on NCI-H460 lung, with NCI-H522 lung and with UO-31 renal was more than 100 µM throughout. Besides, the TGI in the experiment on HT29 colon and in the experiment on UACC-62 melanoma was more than 100 µM throughout.

The values above are taken from PubChem BioAssay (NCI).
